We go through one molecule from ChEMBL document CHEMBL6078646, “Target Ligand Separation and Identification of Isoforsythiaside as a Histone Lysine-Specific Demethylase 1 Covalent Inhibitor Against Breast Cancer Metastasis” (J Med Chem, 2024).

Data set [1] has as its system MDA-MB-231. As to the kind of experiment: Antimetastatic activity against human MDA-MB-231 cells expressing luciferase xenografted in female Balb/c nude mouse assessed as reduction in fluorescence intensity in lungs at 50 mg/kg, ip administered every 3 days and measured on day 15 by bioluminescence imaging analysis relative to control. The format is functional. More on the design: scale not given: the % may be the effect or the level left. The following applies: time 15 day.

Data set [2] concerns the target Lysine-specific histone demethylase 1A (Homo sapiens, UniProt O60341). Kind of data set: Inhibition of LSD1 (unknown origin) at 0.32 to 6.40 uM. As to conditions: dose 0.32-6.4 µM, time 0-25 min.
Data set [3] can be described thus: Toxicity in female Balb/c mouse assessed as effect on creatinine level at 50 mg/kg, ip administered every other day for 7 times. The format is organism-based. The following applies: in vivo.
Data set [4] concerns MDA-MB-231. As to the kind of experiment: Inhibition of cell invasion in human MDA-MB-231 cells assessed as reduction in number of invasive cells at 4 to 32 uM incubated for 24 hrs by phase contrast microscopy Transwell assay. The format is functional, cell-based. The following applies: dose 4-32 µM.
Data set [5] deals with MDA-MB-231. As to the kind of experiment: Inhibition of epithelial to mesenchymal transition in human MDA-MB-231 cells assessed as downregulation of N-cadherin protein expression by Western blotting analysis. As to conditions: dose 0-32 µM. It is filed as functional, cell-based.
Data set [6] has as its system MDA-MB-231. Kind of data set: Cytotoxicity against human MDA-MB-231 cells assessed as cell viability at 0 to 100 uM incubated for 24 hrs by MTT assay. The format is functional. The following applies: dose 0-100 µM.
Data set [7] relates to MDA-MB-231. Kind of data set: Antimetastatic activity against LSD1 knockout human MDA-MB-231 cells xenografted in wild type zebrafish yolk sac assessed as inhibition of cell migration at 12.5 mg/L incubated for 3 days by fluorescence microscopic analysis. It is filed as functional, cell-based. As to conditions: time 3.0 day.
A short description of data set [8]: Half-life in male Sprague-Dawley rat at 10 mg/kg, ip measured at 0 to 1440 mins by LC-MS/MS analysis. It is filed as ADME, organism-based. As to conditions: in vivo, time 0-1440 min.
The nature of data set [9]: Toxicity in female Balb/c mouse assessed as effect on monocytes level at 50 mg/kg, ip administered every other day for 7 times. It is filed as organism-based. As to conditions: in vivo.
Data set [10] in a line: Toxicity in female Balb/c mouse assessed as histological changes in lung at 50 mg/kg, ip administered every other day for 7 times by H and E staining based analysis. The format is organism-based. As to conditions: in vivo.

The source made the active and inactive calls. No cut-off for these calls is given here. Where only a bound is given, the exact number is not on record here.

Regarding `C[C@@H]1O[C@H](OC[C@H]2O[C@@H](OCCc3ccc(O)c(O)c3)[C@H](O)[C@@H](OC(=O)/C=C/c3ccc(O)c(O)c3)[C@@H]2O)[C@H](O)[C@H](O)[C@H]1O`, the Activity in the data set with MDA-MB-231 [1] was 73.3%; in data set [3], “Non-toxic”; in the data set on MDA-MB-231 [6] it was above 90%; in the data set on MDA-MB-231 [7] it was “Active; No Significant Difference With Lsd1 Knockout Control Group”; in data set [9], “Non-toxic”; in [10], “Non-toxic”. In addition, the inhibition entry is “Time-dependent-effect” in data set [2] and “Dose-dependent-effect” with MDA-MB-231 [5]. Moreover, the inhibition result with MDA-MB-231 [4] was “Active”. Besides, in data set [8], the half-life (commonly the time in which the quantity being followed falls by half) was 34.8 min.
